Assay results published in PubChem BioAssay AID248 (DTP/NCI, 2004).
Several values for one entry are separate records, joined by “and”; a condition that tells them apart may be missing. Equal entries are not always repeated. Toxic doses and inconclusive results are not listed. Cut-off read from the data, not from the text of the source: active = T/C of 150% or more; inactive = T/C below 125%.

System: L1210 leukemia ip in BDF1 mice, survival T/C
Test: NCI In Vivo Anticancer Drug Screen. Data for tumor model L1210 Leukemia (intraperitoneal) in B6D2F1 (BDF1) mice
Settings: higher = longer survival
In short: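 Survival endpoint. Drug-treated group vs vehicle group, expressed as T divided by C. Tumor passaged by transplantation.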

Measured: T/C

CC1CCC(NC(=O)N(CCCl)N=O)CC1 (stereo unspecified)
inactive: endpoint: mean survival time, dose: 26.0 mg/kg/injection, schedule: Q01DX009 (ip), vehicle: saline with Tween-80 97 % of control and 101 % of control | endpoint: mean survival time, dose: 40.0 mg/kg/injection, schedule: Q04DX004 (ip), vehicle: saline with Tween-80 123 % of control | endpoint: mean survival time, dose: 50.0 mg/kg/injection, schedule: Q07DX003 (ip), vehicle: Klucel (hydroxypropylcellulose) (HPC) 121 % of control | endpoint: mean survival time, dose: 62.0 mg/kg/injection, schedule: Q01DX001 (ip), vehicle: other 109 % of control | endpoint: mean survival time, dose: 72.0 mg/kg/injection, schedule: Q01DX001 (ip), vehicle: other 113 % of control | endpoint: mean survival time, dose: 400.0 mg/kg/injection, schedule: Q01DX001 (ip), vehicle: saline with Tween-80 100 % of control | endpoint: median survival time, dose: 12.5 mg/kg/injection, schedule: Q01DX001 (ip), vehicle: saline with Tween-80 118 % of control and 121 % of control | endpoint: median survival time, dose: 15.0 mg/kg/injection, schedule: Q01DX009 (ip), vehicle: saline 96 % of control | endpoint: median survival time, dose: 100.0 mg/kg/injection, schedule: Q01DX001 (ip), vehicle: saline with Tween-80 106 % of control and 109 % of control
active: endpoint: mean survival time, dose: 20.0 mg/kg/injection, schedule: Q01DX001 (iv), vehicle: Klucel (hydroxypropylcellulose) (HPC) 332 % of control | endpoint: mean survival time, dose: 20.0 mg/kg/injection, schedule: Q01DX001 (iv), vehicle: clinical formulation 371 % of control | endpoint: mean survival time, dose: 20.0 mg/kg/injection, schedule: Q01DX Z (ip), vehicle: Klucel (hydroxypropylcellulose) (HPC) 166 % of control | endpoint: mean survival time, dose: 20.0 mg/kg/injection, schedule: Q04DX004 (ip), vehicle: saline with Tween-80 290 % of control | endpoint: mean survival time, dose: 22.0 mg/kg/injection, schedule: Q01DX001 (ip), vehicle: clinical formulation 255 % of control | endpoint: mean survival time, dose: 22.0 mg/kg/injection, schedule: Q01DX001 (ip), vehicle: saline 326 % of control | endpoint: mean survival time, dose: 22.0 mg/kg/injection, schedule: Q01DX001 (iv), vehicle: clinical formulation 250 % of control | endpoint: mean survival time, dose: 22.0 mg/kg/injection, schedule: Q01DX001 (iv), vehicle: saline 202 % of control | endpoint: mean survival time, dose: 24.0 mg/kg/injection, schedule: Q01DX001 (ip), vehicle: other 252 % of control | endpoint: mean survival time, dose: 24.0 mg/kg/injection, schedule: Q01DX001 (ip), vehicle: saline with Tween-80 436 % of control | endpoint: mean survival time, dose: 24.0 mg/kg/injection, schedule: Q01DX001 (oral), vehicle: other 364 % of control | endpoint: mean survival time, dose: 25.0 mg/kg/injection, schedule: Q01DX001 (ip), vehicle: other 300 % of control | endpoint: mean survival time, dose: 25.0 mg/kg/injection, schedule: Q01DX001 (ip), vehicle: saline 382 % of control | endpoint: mean survival time, dose: 25.0 mg/kg/injection, schedule: Q07DX003 (ip), vehicle: Klucel (hydroxypropylcellulose) (HPC) 214 % of control | endpoint: mean survival time, dose: 27.0 mg/kg/injection, schedule: Q01DX001 (ip), vehicle: other 283 % of control | endpoint: mean survival time, dose: 30.0 mg/kg/injection, schedule: Q01DX001 (ip), vehicle: other 321 % of control | endpoint: mean survival time, dose: 31.0 mg/kg/injection, schedule: Q01DX001 (ip), vehicle: other 357 % of control | endpoint: mean survival time, dose: 33.0 mg/kg/injection, schedule: Q01DX001 (ip), vehicle: saline 326 % of control | endpoint: mean survival time, dose: 33.0 mg/kg/injection, schedule: Q01DX001 (iv), vehicle: saline 297 % of control | endpoint: mean survival time, dose: 40.0 mg/kg/injection, schedule: Q01DX001 (ip), vehicle: Klucel (hydroxypropylcellulose) (HPC) 180 % of control | endpoint: mean survival time, dose: 40.0 mg/kg/injection, schedule: Q01DX001 (ip), vehicle: clinical formulation 404 % of control | endpoint: mean survival time, dose: 40.0 mg/kg/injection, schedule: Q01DX001 (iv), vehicle: Klucel (hydroxypropylcellulose) (HPC) 395 % of control | endpoint: mean survival time, dose: 40.0 mg/kg/injection, schedule: Q01DX001 (iv), vehicle: clinical formulation 188 % of control and 251 % of control | endpoint: mean survival time, dose: 45.0 mg/kg/injection, schedule: Q01DX001 (ip), vehicle: other 304 % of control | endpoint: mean survival time, dose: 50.0 mg/kg/injection, schedule: Q01DX001 (ip), vehicle: other 226 % of control | endpoint: mean survival time, dose: 50.0 mg/kg/injection, schedule: Q01DX001 (ip), vehicle: saline 326 % of control and 360 % of control | endpoint: mean survival time, dose: 64.0 mg/kg/injection, schedule: Q04DX002 (ip), vehicle: saline with Tween-80 294 % of control and 313 % of control | endpoint: mean survival time, dose: 67.0 mg/kg/injection, schedule: Q01DX001 (ip), vehicle: other 230 % of control | endpoint: mean survival time, dose: 75.0 mg/kg/injection, schedule: Q01DX001 (ip), vehicle: saline 219 % of control and 296 % of control | endpoint: mean survival time, dose: 91.0 mg/kg/injection, schedule: Q01DX001 (oral), vehicle: other 280 % of control and 306 % of control and 388 % of control | endpoint: median survival time, dose: 1.8 mg/kg/injection, schedule: Q01DX009 (ip), vehicle: saline 318 % of control | endpoint: median survival time, dose: 7.5 mg/kg/injection, schedule: Q01DX009 (ip), vehicle: saline 211 % of control
